Test system: Ventricular Cells in the Area Adjacent to Infarction
Experiment: Suppression of hypertrophy of ventricular cells in the area adjacent to infarction (coronary artery ligation)
Assay type: in vivo, Wistar rats
Conditions: rats, 4 weeks administration after coronary ligation; pravastatin 5 mg/kg/day, CS-866 2 mg/kg/day; normal 2,737, control 3,812

CC[C@H](C)C(=O)O[C@H]1C[C@H](O)C=C2C=C[C@H](C)[C@H](CC[C@@H](O)C[C@@H](O)CC(=O)O)[C@H]21 [pravastatin, (+)-(3R,5R)-3,5-dihydroxy-7-[(1S,2S,6S,8S,8aR)-6-hydroxy-2-methyl-8-[(S)-2-methylbutyryloxy]-1,2,6,7,8,8a-hexahydro-1-naphthyl]heptanoic acid]
Mass of cardiac muscle cells in adjacent area to the infarction: 3,053 μm^2

From patent US20050059720A1, “Medicinal compositions for the prevention or treatment of cardiac failure” (SANKYO COMPANY, LIMITED, priority 2000, published 2005)
